Reference: patent US9012470B2 (Dart NeuroScience (Cayman) Ltd., priority 2010, dated 2015)
Counter-ions that a name gives are not always drawn.

Assays:
GABAA receptors = assay: Electrophysiology assay, two-electrode voltage clamp in Xenopus oocytes expressing GABAA receptors; format: cell-based; settings: GABA EC10, screening concentration of 10 μM, subunit combination not stated
Description: mRNA was prepared from lyophilized plasmid pellets containing cDNA inserts encoding the specific GABAA receptor subunit. cDNAs encoding the α2, α3, and γ3 subunits were subcloned into pBluescript, SK^−. cDNAs encoding the α1 and α5 subunits were subcloned into prC while cDNA encoding the β2 subunit was subcloned into pcDNA1. The cDNA construct encoding the γ2s subunit is in the pGH19 expression construct. Overnight cultures of transformed DH5a bacterial cells were performed to grow sufficient quantities for maxiprep isolation of the plasmid cDNA. The resulting plasmid cDNA was linearized by digestion with an appropriate restriction enzyme that cleaves distal to the cDNA insert (XbaI for α1,2, β2, and γ3 or NotI for α3,5 and γ2, respectively). Following digestion, plasmid cDNA was treated with proteinase K and extracted with phenol/chloroform/isoamyl alcohol, followed by ethanol precipitation. cDNA quality was assessed by agarose-gel electrophoresis (1.5% agarose gel). Samples were stored at −20° C. until use. In vitro transcription was performed with T7 RNA polymerase. mRNA was then stored at −80° C. until use. Plasmids were linearized with appropriate restriction enzymes before in vitro transcription using the Message Machine kit (Ambion, Austin, Tex.).
GABAA Receptor Expression in Xenopus oocytes.
GABAA receptor expression in Xenopus oocytes: Following 45 min of 0.15% Tricaine anesthesia, an ovarian section containing the follicular oocytes was removed from the frog through a lateral abdominal incision. Oocytes were immediately placed in a calcium-free solution (NaCl 96 mM, MgCl2 1 mM, KCl 2 mM, Hepes 50 mM, pyruvate 2.5 mM, gentamycin 100 μg/mL, penicillin-streptomycin 50 U/mL, pH 7.4). Following 1.5-2 hour incubation in 0.2% collagenase (type II, Sigma Chemical Co., St. Louis, Mo.) at room temperature, individual Dumont stage V and VI oocytes were transferred to an incubator and maintained overnight in Barth's solution (NaCl 84 mM, NaHCO3 2.4 mM, MgSO4 0.82 mM, KCl 1 mM, Ca(NO3)2 0.33 mM, CaCl2 0.41 mM, Tris/HCl 7.5 mM, pyruvate 2.5 mM, gentamycin 50 μg/mL, penicillin-streptomycin, 100 units/mL, pH 7.4) at 18-20° C. and used for experiments 1-5 days post-injection. Oocytes were injected solution using an electronic microinjector (Drummond, Broomall, Pa.) with 50 nL of RNA containing 0.3-0.5 ng of each subunit RNA in a 1:1:1 ratio. The injected oocytes were used for experiments after 1-5 days of incubation in Barth's solution at 18-20° C.
Measurements of ion currents from oocytes expressing GABAA receptors were performed using a Warner two-electrode voltage-clamp amplifier (Warner Instruments, Inc., Foster City, Calif.) (Park-Chung, M., et al. (1999) Brain Res. 830: 72-87 incorporated herein in its entirety). Microelectrodes were fabricated from borosilicate glass capillaries with a programmed pipette puller (Sutter Instrument Co., Calif.). Microelectrode resistance was 1-3 MΩ when filled with 3 M KCl. The oocyte recording chamber was continuously perfused with Ringer solution. Oocytes were clamped at a holding potential of −70 mV during data acquisition. The membrane current was filtered at 10 Hz and sampled at 100 Hz. Compounds were applied by a gravity-driven external perfusion system. The working volume of the recording chamber was 30 μL and the rate of the perfusion was approximately 50 μL/sec. Compound application was 10-20 sec followed by a 90 sec wash. Data acquisition and external perfusion was computer controlled by custom-developed software. All experiments were performed at room temperature (22-24° C.). Dose-response data from each oocyte were fitted to the Hill equation by non-linear regression using the equation: IGABA=Emax/(1+(EC50/c)^n^H)
Emax is the maximum response, EC50 is the concentration producing 50% of the maximal response, nH is the Hill coefficient and c is the concentration of agonist. […]

[1] = tested on: benzodiazepine site of GABAA; assay: Binding assay, benzodiazepine site of GABAA (binding assay 1: rat brain, (3H)-flunitrazepam; binding assay 2: bovine hippocampal membranes, [3H]-RY80); settings: radioligand binding; for % Inhibition at 10 μM: 10 μM test compound; for % Inhibition at 0.1 μM: 0.1 μM test compound
Summary of the method: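 Assay 1: rat whole-brain (minus cerebellum) membranes in Na–K phosphate pH 7.4, 1 nM (3H)-flunitrazepam, 60 min at 25° C., ± 30 μM GABA; nonspecific with 10 μM diazepam. Assay 2: bovine hippocampal membranes, 0.8 nM [3H]-RY80 in 50 mM Tris-Citrate pH 7.8/200 mM NaCl, 60 min at 0-4° C.; nonspecific with 0.5 μM L-655,708. Filtration read-out.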

| Structure (SMILES) | EP Modulation (GABAA receptors) | % Inhibition at 10 μM [1] | % Inhibition at 0.1 μM [1] |
| --- | --- | --- | --- |
| CCNC(=O)n1ncc2c3nn(-c4ccc(Br)cc4)c(=O)c-3c[nH]c21 [Compound 6w, 2-(4-bromophenyl)-N-ethyl-3-oxo-2,3-dihydrodipyrazolo[3,4-b:3′,4′-d]pyridine-6(5H)-carboxamide.TFA] | E (E indicates negative modulation <20%) | A (A indicates % inhibition >80%) |  |
| O=C(NC1CC1)n1ncc2c3nn(-c4ccccc4)c(=O)c-3c[nH]c21 [Compound 6j, N-cyclopropyl-3-oxo-2-phenyl-2,3-dihydrodipyrazolo[3,4-b:3′,4′-d]pyridine-6(5H)-carboxamide] | E (E indicates negative modulation <20%) | A (A indicates % inhibition >80%) | C (C indicates % inhibition <20%) |
| CCNC(=O)n1cc2[nH]cc3c(=O)n(-c4ccccc4)nc-3c2c1 [Compound 13b, N-Ethyl-3-oxo-2-phenyl-2,3-dihydropyrazolo[3,4-d]pyrrolo[3,4-b]pyridine-7(5H)-carboxamide] | D (D indicates negative modulation >20%) | A (A indicates % inhibition >80%) | A (A indicates % inhibition >80%) |
| CNC(=O)n1cc2[nH]cc3c(=O)n(-c4ccccc4)nc-3c2c1 [Compound 13a, N-Methyl-3-oxo-2-phenyl-2,3-dihydropyrazolo[3,4-d]pyrrolo[3,4-b]pyridine-7(5H)-carboxamide] | D (D indicates negative modulation >20%) | A (A indicates % inhibition >80%) | A (A indicates % inhibition >80%) |
| O=C(Nc1ccccc1)n1ncc2c3nn(-c4ccccc4)c(=O)c-3c[nH]c21 [Compound 6h, 3-oxo-N,2-diphenyl-2,3-dihydrodipyrazolo[3,4-b:3′,4′-d]pyridine-6(5H)-carboxamide] | D (D indicates negative modulation >20%) | B (B indicates % inhibition <80% and >20%) | C (C indicates % inhibition <20%) |
| CCNC(=S)n1ncc2c3nn(-c4ccccc4)c(=O)c-3c[nH]c21 [Compound 6ar, N-ethyl-3-oxo-2-phenyl-2,3-dihydrodipyrazolo[3,4-b:3′,4′-d]pyridine-6(5H)-carbothioamide] | E (E indicates negative modulation <20%) | A (A indicates % inhibition >80%) |  |
| CCNC(=O)n1nc2[nH]cc3c(=O)n(-c4ccccc4)nc-3c2c1C [Compound 6av, N-ethyl-8-methyl-3-oxo-2-phenyl-2,3-dihydrodipyrazolo[3,4-b:3′,4′-d]pyridine-7(5H)-carboxamide] | E (E indicates negative modulation <20%) | A (A indicates % inhibition >80%) | B (B indicates % inhibition <80% and >20%) |
| CCNC(=O)n1ncc2c3nn(-c4cccc(C(F)(F)F)c4)c(=O)c-3c[nH]c21 [Compound 6ai, N-ethyl-3-oxo-2-(3-(trifluoromethyl)phenyl)-2,3-dihydrodipyrazolo[3,4-b:3′,4′-d]pyridine-6(5H)-carboxamide] | 0% | A (A indicates % inhibition >80%) | C (C indicates % inhibition <20%) |
| CNC(=O)n1ncc2c3nn(-c4ccccc4)c(=O)c-3c[nH]c21 [Compound 6c, N-methyl-3-oxo-2-phenyl-2,3-dihydrodipyrazolo[3,4-b:3′,4′-d]pyridine-6(5H)-carboxamide] | D (D indicates negative modulation >20%) | A (A indicates % inhibition >80%) | B (B indicates % inhibition <80% and >20%) |
| CCNC(=O)n1ncc2c3nn(-c4ccc(Cl)cn4)c(=O)c-3c[nH]c21 [Compound 6ay, 2-(5-chloropyridin-2-yl)-N-ethyl-3-oxo-2,3-dihydrodipyrazolo[3,4-b:3′,4′-d]pyridine-6(5H)-carboxamide] | D (D indicates negative modulation >20%) | A (A indicates % inhibition >80%) |  |
| CCNC(=O)n1cc2[nH]cc3c(=O)n(-c4ccc(F)cc4)nc-3c2c1 [Compound 13f, N-Ethyl-2-(4-fluorophenyl)-3-oxo-2,3-dihydropyrazolo[3,4-d]pyrrolo[3,4-b]pyridine-7(5H)-carboxamide] | D (D indicates negative modulation >20%) | A (A indicates % inhibition >80%) | A (A indicates % inhibition >80%) |
| CCNC(=O)n1cc2[nH]cc3c(=O)n(-c4ccc(F)cc4F)nc-3c2c1 [Compound 13g, 2-(2,4-Difluorophenyl)-N-ethyl-3-oxo-2,3-dihydropyrazolo[3,4-d]pyrrolo[3,4-b]pyridine-7(5H)-carboxamide] | D (D indicates negative modulation >20%) | A (A indicates % inhibition >80%) | B (B indicates % inhibition <80% and >20%) |
| CCCCNC(=O)n1cc2[nH]cc3c(=O)n(-c4ccccc4F)nc-3c2c1 [Compound 13e, N-butyl-2-(2-fluorophenyl)-3-oxo-2,3-dihydropyrazolo[3,4-d]pyrrolo[3,4-b]pyridine-7(5H)-carboxamide] | E (E indicates negative modulation <20%) | A (A indicates % inhibition >80%) | B (B indicates % inhibition <80% and >20%) |
| CCNC(=O)n1cc2[nH]cc3c(=O)n(-c4ccccc4)nc-3c2n1 [Compound 21a] | D (D indicates negative modulation >20%) | C (C indicates % inhibition <20%) | B (B indicates % inhibition <80% and >20%) |
| CCNC(=O)n1ncc2c3nn(-c4cccc(Cl)c4)c(=O)c-3c[nH]c21 [Compound 6ad, 2-(3-chlorophenyl)-N-ethyl-3-oxo-2,3-dihydrodipyrazolo[3,4-b:3′,4′-d]pyridine-6(5H)-carboxamide] | E (E indicates negative modulation <20%) | A (A indicates % inhibition >80%) |  |
| CCNC(=O)n1ncc2c3nn(-c4ccc(C(F)(F)F)cc4)c(=O)c-3c[nH]c21 [Compound 6ae, N-ethyl-3-oxo-2-(4-(trifluoromethyl)phenyl)-2,3-dihydrodipyrazolo[3,4-b:3′,4′-d]pyridine-6(5H)-carboxamide] | E (E indicates negative modulation <20%) | A (A indicates % inhibition >80%) |  |
| CCNC(=O)n1ncc2c3nn(-c4ccc(C(C)C)cc4)c(=O)c-3c[nH]c21 [Compound 6z, N-ethyl-2-(4-isopropylphenyl)-3-oxo-2,3-dihydrodipyrazolo[3,4-b:3′,4′-d]pyridine-6(5H)-carboxamide. TFA] | E (E indicates negative modulation <20%) | A (A indicates % inhibition >80%) |  |
